Measured values: patent publication US5284850A, “Terpene amino alcohols and medicinal uses thereof” (Kuraray Co., Ltd., priority 1985, dated 1994)
Structures can show the parent of a compound that is named as a salt.

Columns and labels:
CO2 -treated mice = test: Effect of improving the memories of amnesia models: CO2-induced amnesia, latency; format: in vivo, mice of ddK strain; conditions: 100 mg/kg oral
Excerpt: (§1) The mice were allowed to take feeds and water freely. The device comprised a dark chamber (a rectangular box 20 cm high, with a floor grid, 12 cm×15 cm) and a bright chamber (a box with an open top and a floor grid, 15 cm×15 cm, surrounded by rectangular walls, 15 cm^w ×20 cm^H, on four sides). The two chambers were in contact with each other sharing a common surface of 15 cm×20 cm which is provided with an opening through which the mouse could move freely. A stainless steel wire, which was connected to an electric impulse apparatus (manufactured by Nippon Medical and Chemical Instruments Co., Ltd.), was placed on the floor grid in the dark chamber. The bright chamber was illuminated with a 60 W electric bulb from a height of about 45 cm above the floor grid. Each mouse was placed on the floor grid in the bright chamber. Immediately after the mouse (four limbs) entered the dark chamber, it was loaded with an electroshock cf DC 50 V through the floor grid for about three seconds. Immediately after electroshock loading, the mouse was taken out from the dark chamber. […] Immediately after the acquisition trials, each mouse was left in a container filled with carbon dioxide for a period of 8 seconds to induce amnesia. A 5% aqueous suspension of each test compound in gum arabic solution was administered orally to mice immediately after carbon dioxide loading or to mice immediately after completion of the acquisition trials following scopolamine administration.

Scopolamine-treated mice = test: Effect of improving the memories of amnesia models: scopolamine-induced amnesia, latency; format: in vivo, mice of ddK strain; conditions: 100 mg/kg oral; for improvement of shortening of latency induced by scopolamine (in words): compared with calcium hopantenate and pramiracetam
Excerpt: as §1, with “Scopolamine, […],” for “Immediately after the acquisition trials, each mouse”, “administered intraperitoneally to mice” for “left in a container filled with carbon dioxide for a period of 8 seconds”, “amnesia 20 minutes before initiation of acquisition trials.” for “amnesia.”

[1] = tested on: sensitized bronchial muscle; test: Antiallergic action: inhibition of egg albumin-induced contraction of sensitized guinea pig bronchial muscle; format: tissue-based, guinea pigs of Hartley strain; conditions: Cavia porcellus; for inhibition at 10 µM: 10^-5 M; for inhibition at 1 µM: 10^-6 M; for inhibition at 0.1 µM: 10^-7 M; for inhibition at 0.01 µM: 10^-8 M; for inhibition at 100 µM: 10^-4 M
Experimental: Male guinea pigs of Hartley strain (body weight: about 250 g) were intraperitoneally or intramuscularly dosed with egg albumin (dose 100 mg/kg) and the same procedure was repeated after 3 days. After 3 to 4 weeks, the guinea pi-as were bled to death and the sensitized bronchial muscle was excised and cut into 1.5 mm thick rings. Three rings were joined to prepare a specimen. The specimen was suspended in a tissue bath and a load of 1 g was applied. […] After stabilization of the specimen (after about 1 hour), histamine hydrochloride was added to the bath at a final concentration of 10^-5 M. The contraction curve was recorded. After the contraction had been stabilized, the specimen was washed with 3 portions of Ringer's solution at 10-minute intervals to stabilize the contraction (about 1 hour was required). Then, the test compound was added to the tissue bath and, after an interval of 10 minutes, 5 mg/ml of egg albumin was added. The contraction amplitude of the specimen was measured and the percent inhibition was calculated according to the following formula. [formula] A: Contraction amplitude of control group when egg albumin is added A': Contraction amplitude of dosage group when egg albumin is added
H: Contraction amplitude of control group when histamine hydrochloride is added
H': Contraction amplitude of dosage group when histamine hydrochloride is added

mice of ddK strain = test: KCN anoxia test; format: in vivo; conditions: for Number of survivals/Number of mice used / Survival rate (%): KCN 2.65 mg/kg i.v. after 30 minutes, 180 seconds; for Number of survivals/Number of mice used: control 0/8; for Survival rate (%): control 0; for anti-anoxic action (in words): KCN anoxia test
[2] = cited from earlier work; for side effects: prior art
Acute toxicity (LD50) = conditions: mouse, in vivo; male ddK mice, 20-23 g, 10 animals per group, oral
Excerpt: Toxicity studies also made it clear that the terpene amino alcohols according to the present invention are of low toxicity.

[3] = tested on: cerebral glucose uptake and oxidation of succinic acid in mitochondria; conditions: cited from earlier work
[4] = 100 mg/kg i.p., *P < 0.05, **P < 0.01
[5] = CO2-treated control 106.5 ± 24.9, normal mice 394.2 ± 84.0
[6] = scopolamine-treated control 83.5 ± 21.5, normal mice 394.2 ± 84.0
[7] = CO2-treated control 37.6 ± 19.6
[8] = scopolamine-treated control 54.6 ± 14.5

CC(C)CCCC(C)CCCC(C)CCCC(C)(O)C(O)CN(C)CCO (centres unmarked) [Compound (35)]
memory activating action, CO2-induced amnesia (in words) (CO2 -treated mice): showed a tendency to activate memory
Latency, Mean ± S.E. (CO2 -treated mice; CO2-treated control 138.2 ± 43.6, normal mice 382.4 ± 83.6): 258.4 ± 94.5 s
improvement of shortening of latency induced by scopolamine (in words) (Scopolamine-treated mice): significantly improved the shortening of latency induced by scopolamine
Latency, Mean ± S.E. (Scopolamine-treated mice; scopolamine-treated control 169.0 ± 53.0, normal mice 382.4 ± 83.6): 320.2 ± 66.2 s
inhibition at 10 µM [1]: 27.1%
inhibition at 1 µM [1]: 85.5%
inhibition at 0.1 µM [1]: 35%
inhibition at 0.01 µM [1]: 22%
Number of survivals/Number of mice used (mice of ddK strain; 100 mg/kg i.p.): 8/9
Survival rate (%) (mice of ddK strain; [4]): 88.9%
anti-anoxic action (in words) (mice of ddK strain): significantly high anti-anoxic action

CC(C)N(CCNC(=O)CN1CCCC1=O)C(C)C [Pramiracetam, pramiracetam, reference compound]
memory activating action, CO2-induced amnesia (in words) (CO2 -treated mice): failed to show a significant memory activating action
Latency, Mean ± S.E. (CO2 -treated mice; [5]): 175.8 ± 42.9 s
Latency, Mean ± S.E. (Scopolamine-treated mice; [6]): 98.1 ± 24.9 s

CC(C)CCCC(C)CCCC(C)(O)C(O)CN(C)C(=O)c1cccnc1 (centres unmarked) [Compound (15), N-methyl-N-(3,7,11-trimethyl-2,3-hydroxydodecyl)nicotinamide]
memory activating action, CO2-induced amnesia (in words) (CO2 -treated mice): showed a tendency to activate memory
Latency, Mean ± S.E. (CO2 -treated mice; [7]): 163.9 ± 49.1 s
Latency, Mean ± S.E. (Scopolamine-treated mice; [8]): 65.2 ± 20.2 s
inhibition at 100 µM [1]: 72.5%
inhibition at 10 µM [1]: 67%
inhibition at 1 µM [1]: 93%
Number of survivals/Number of mice used (mice of ddK strain; 100 mg/kg i.p.): 7/9
Survival rate (%) (mice of ddK strain; [4]): 77.8%
anti-anoxic action (in words) (mice of ddK strain): significantly high anti-anoxic action

CC(C)CCCC(C)NC(C)C (centres unmarked) [Iproheptine hydrochloride, iproheptine hydrochloride]
side effects [2]: drowsiness and nausea

O=C(O)c1cc(=O)c2c(OCC(O)COc3cccc4oc(C(=O)O)cc(=O)c34)cccc2o1 [Disodium cromoglicate, disodium cromoglicate, reference compound]
antiallergic effect (in words) ([2]; administered by the oral route): does not produce an antiallergic effect
inhibition at 100 µM [1]: 32.1%
inhibition at 10 µM [1]: 21%
inhibition at 1 µM [1]: 7.8%
inhibition at 0.1 µM [1]: 0%
inhibition at 0.01 µM [1]: 0%

CC(C)CCCC(C)CCCC(C)CCCC(C)(O)C(O)CN(C)C (centres unmarked) [Compound (32)]
LD50 (Acute toxicity (LD50)): 3880 mg/kg
inhibition at 10 µM [1]: 40%
inhibition at 1 µM [1]: 61.1%
inhibition at 0.1 µM [1]: 25%
inhibition at 0.01 µM [1]: 10%

COc1ccc(/C=C/C(=O)Nc2ccccc2C(=O)O)cc1OC [Tranilast, tranilast, reference compound]
side effects [2]: cystitis-like symptoms such as hematuria, pyuria and dysuria
inhibition at 100 µM [1]: 32.1%
inhibition at 10 µM [1]: 54.8%
inhibition at 1 µM [1]: 21%
inhibition at 0.1 µM [1]: 0%
inhibition at 0.01 µM [1]: 0%

CC(C)(CO)[C@@H](O)C(=O)NCCCC(=O)O [Calcium hopantenate, calcium hopantenate, reference compound]
memory activating action, CO2-induced amnesia (in words) (CO2 -treated mice): failed to show a significant memory activating action
Latency, Mean ± S.E. (CO2 -treated mice; [5]): 115.5 ± 40.6 s
Latency, Mean ± S.E. (Scopolamine-treated mice; [6]): 80.5 ± 17.2 s

CC(C)CCCC(C)CCCC(C)CCCC(C)(O)C(O)CN(C)CCOC(=O)c1cccnc1 (centres unmarked) [Compound (36), 2-[N-(2,3-dihydroxy-3,7,11,15-tetramethylhexadecyl)-N-methylamino]ethyl nicotinate]
memory activating action, CO2-induced amnesia (in words) (CO2 -treated mice): very significantly improved the shortening of latency induced by carbon dioxide
Latency, Mean ± S.E. (CO2 -treated mice; [7]): 216.0 ± 69.0 s
Latency, Mean ± S.E. (CO2 -treated mice; CO2-treated control 139.4 ± 27.5, normal mice 375.7 ± 74.9, *P < 0.05): 336.6 ± 77.8 s
improvement of shortening of latency induced by scopolamine (in words) (Scopolamine-treated mice): significantly improved the shortening of latency induced by scopolamine
Latency, Mean ± S.E. (Scopolamine-treated mice; [8]): 78.5 ± 26.9 s
Latency, Mean ± S.E. (Scopolamine-treated mice; scopolamine-treated control 166.7 ± 36.7, normal mice 375.7 ± 74.9, *P < 0.05): 336.2 ± 55.4 s
inhibition at 10 µM [1]: 45%
inhibition at 1 µM [1]: 20%
inhibition at 0.1 µM [1]: 8%

CN1CCC(=C2c3ccccc3CC(=O)c3sccc32)CC1 [Ketotifen, ketotifen]
time until antiallergic effect manifests itself ([2]; delayed effect type): 4-6 weeks
side effects [2]: drowsiness

dihydroergotoxine mesilate [reference compound]
reported cerebral actions (in words) [3]: promotes cerebral glucose uptake and oxidation of succinic acid in mitochondria and increases the cerebral blood flow
Survival rate (%) (mice of ddK strain; 3 mg/kg i.p.): 10.0%
Number of survivals/Number of mice used (mice of ddK strain; 3 mg/kg i.p.): 1/10
anti-anoxic action (in words) (mice of ddK strain): not sufficiently remarkable
